Measurements taken from patent publication US20250026721A1, “COMPOUNDS AND METHODS FOR MODULATING RAS-PI3K” (Vividion Therapeutics, Inc., priority 2023, published 2025).

Assays:
[1] = target: T1, PIK3CA_C242 (Homo sapiens, UniProt P42336); test: Proteomic TE50 (IA-DTB / TMT mass spectrometry) in Jurkat cell lysate; assay type: binding; details: 1 hour at rt, 7-point dose response
T1 construct: endogenous in cells; host or cells: Jurkat cell lysate
Procedure, shortened: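 Cysteine engagement was read by targeted TMT MS3 of the IA-DTB-labelled, streptavidin-enriched C242 tryptic peptide. Beforehand, Jurkat lysate was exposed to a 7-point 1:5 compound series for 1 h at rt, then to 200 μM IA-DTB for 1 h. Reporter S/N curves gave TE50.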

[2] = target: T2, PIK3CA (Homo sapiens, UniProt P42336); test: In vitro ELISA target engagement assay for PIK3CA in Jurkat cellular lysate (competition with PIK3CA Biotin Probe); assay type: binding; details: 1 hour at rt, then 500 nM PIK3CA Biotin Probe, read-out: Elisa Target Engagement Assay (TE50)
T2 construct: endogenous in cells; host or cells: Jurkat cell lysate
T2 sequence (P42336 whole entry): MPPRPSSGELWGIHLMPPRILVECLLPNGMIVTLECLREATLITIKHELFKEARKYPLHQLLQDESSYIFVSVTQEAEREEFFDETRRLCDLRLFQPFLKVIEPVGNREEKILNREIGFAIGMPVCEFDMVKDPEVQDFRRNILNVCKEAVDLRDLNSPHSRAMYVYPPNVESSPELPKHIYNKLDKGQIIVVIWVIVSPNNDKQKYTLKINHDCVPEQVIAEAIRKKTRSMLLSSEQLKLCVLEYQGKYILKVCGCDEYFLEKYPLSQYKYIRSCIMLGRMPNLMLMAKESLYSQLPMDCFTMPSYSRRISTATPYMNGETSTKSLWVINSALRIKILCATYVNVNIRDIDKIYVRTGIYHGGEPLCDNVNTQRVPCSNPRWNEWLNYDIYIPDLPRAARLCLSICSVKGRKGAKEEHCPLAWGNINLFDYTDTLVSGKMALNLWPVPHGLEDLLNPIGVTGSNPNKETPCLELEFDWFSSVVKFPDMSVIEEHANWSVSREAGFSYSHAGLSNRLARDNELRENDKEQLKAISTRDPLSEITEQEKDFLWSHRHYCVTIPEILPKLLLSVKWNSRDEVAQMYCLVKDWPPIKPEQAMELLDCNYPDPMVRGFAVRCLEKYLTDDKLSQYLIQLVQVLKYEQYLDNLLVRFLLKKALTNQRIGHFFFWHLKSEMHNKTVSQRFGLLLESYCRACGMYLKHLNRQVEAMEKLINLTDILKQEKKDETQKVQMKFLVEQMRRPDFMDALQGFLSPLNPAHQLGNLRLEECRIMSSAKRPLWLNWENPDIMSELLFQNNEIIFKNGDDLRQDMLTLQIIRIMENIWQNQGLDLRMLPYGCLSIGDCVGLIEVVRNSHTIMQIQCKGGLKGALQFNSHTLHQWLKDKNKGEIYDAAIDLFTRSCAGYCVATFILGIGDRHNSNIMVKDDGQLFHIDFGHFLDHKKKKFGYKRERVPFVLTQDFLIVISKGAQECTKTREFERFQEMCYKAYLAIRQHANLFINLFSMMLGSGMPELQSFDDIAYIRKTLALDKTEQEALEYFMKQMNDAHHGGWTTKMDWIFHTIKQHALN
T2 sequence (P27986 whole entry partner): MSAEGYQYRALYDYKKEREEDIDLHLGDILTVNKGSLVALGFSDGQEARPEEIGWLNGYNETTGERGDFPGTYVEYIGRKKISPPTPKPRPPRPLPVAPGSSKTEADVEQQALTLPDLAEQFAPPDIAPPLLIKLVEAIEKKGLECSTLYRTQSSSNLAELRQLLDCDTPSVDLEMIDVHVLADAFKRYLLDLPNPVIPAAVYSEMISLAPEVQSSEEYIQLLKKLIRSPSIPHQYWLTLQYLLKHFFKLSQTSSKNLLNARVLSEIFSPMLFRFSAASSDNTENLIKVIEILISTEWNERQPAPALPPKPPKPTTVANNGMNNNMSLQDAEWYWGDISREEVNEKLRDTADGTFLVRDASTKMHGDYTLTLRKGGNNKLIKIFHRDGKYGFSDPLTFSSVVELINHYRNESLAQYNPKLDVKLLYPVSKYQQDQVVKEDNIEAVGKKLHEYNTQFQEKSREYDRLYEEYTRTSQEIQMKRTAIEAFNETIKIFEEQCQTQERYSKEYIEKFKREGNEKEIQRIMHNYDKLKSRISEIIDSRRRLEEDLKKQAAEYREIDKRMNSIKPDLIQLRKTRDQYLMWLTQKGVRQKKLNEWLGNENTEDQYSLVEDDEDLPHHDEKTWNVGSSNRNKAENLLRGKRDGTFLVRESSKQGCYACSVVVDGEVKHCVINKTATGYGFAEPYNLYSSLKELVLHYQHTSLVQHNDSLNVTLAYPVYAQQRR
Procedure, shortened: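 Competition format in Jurkat lysate: compound (serial dilutions, top 200 μM) for 1 h at rt, then 500 nM final biotinylated PIK3CA probe for 1 h at rt. Sandwich ELISA with capture antibody and Neutravidin-HRP luminescence read-out measured probe-labelled PIK3CA, giving TE50.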

T1 sequence (P42336 whole entry): as the sequence (P42336 whole entry) above
T1 sequence (P27986 whole entry partner): as the sequence (P27986 whole entry partner) above

SMILES | IC50 [1] [nM] | IC50 [2] [nM]
CC[C@@H](/C=C\S(C)(=O)=O)NC(=O)C1(F)CCN(S(=O)(=O)c2ccc(Cl)cc2-c2ccccc2)CC1 [Compound 84, (S,Z)-1-((5-chloro-[1,1′-biphenyl]-2-yl)sulfonyl)-4-fluoro-N-(1-(methylsulfonyl)pent-1-en-3-yl)piperidine-4-carboxamide] | 450 | 510
CCc1ccc(S(=O)(=O)N2CCC(F)(C(=O)N[C@H](C)/C=C\S(C)(=O)=O)CC2)c(-c2ccccc2)c1 [Compound 112, (R,Z)-1-((5-ethyl-[1,1′-biphenyl]-2-yl)sulfonyl)-4-fluoro-N-(4-(methylsulfonyl)but-3-en-2-yl)piperidine-4-carboxamide] | 660 | 780
C[C@H](/C=C\S(C)(=O)=O)NC(=O)C1(F)CCN(S(=O)(=O)c2ccc(OC(F)(F)F)cc2-c2ccccc2Cl)CC1 [Compound 34, (R,Z)-1-((2′-chloro-5-(trifluoromethoxy)-[1,1′-biphenyl]-2-yl)sulfonyl)-4-fluoro-N-(4-(methylsulfonyl)but-3-en-2-yl)piperidine-4-carboxamide] | 700 | 550
CC#CCOc1cccc(-c2cc(Cl)ccc2S(=O)(=O)N2CCC(F)(C(=O)N[C@@H](C)/C=C\S(C)(=O)=O)CC2)c1 [Compound 264, (S,Z)-1-((3′-(but-2-yn-1-yloxy)-5-chloro-[1,1′-biphenyl]-2-yl)sulfonyl)-4-fluoro-N-(4-(methylsulfonyl)but-3-en-2-yl)piperidine-4-carboxamide] | 510 | 480
COc1cc(-c2ccccc2Cl)c(S(=O)(=O)N2CCC(F)(C(=O)N[C@H](C)/C=C\S(C)(=O)=O)CC2)cn1 [Compound 186, 1-[[4-(2-chlorophenyl)-6-methoxy-3-pyridyl]sulfonyl]-4-fluoro-N—[(Z,1R)-1-methyl-3-methylsulfonyl-allyl]piperidine-4-carboxamide] | 226 | 493
CCOc1ccc(S(=O)(=O)N2CCC(F)(C(=O)N[C@H](C)/C=C\S(C)(=O)=O)CC2)c(-c2ccccc2C)c1 [Compound 102, (R,Z)-1-((5-ethoxy-2′-methyl-[1,1′-biphenyl]-2-yl)sulfonyl)-4-fluoro-N-(4-(methylsulfonyl)but-3-en-2-yl)piperidine-4-carboxamide] | 610 | 730
C[C@@H](/C=C\S(C)(=O)=O)NC(=O)C1(F)CCN(S(=O)(=O)c2ccc(N(C)C)cc2-c2ccccc2)CC1 [Compound 88, (S,Z)-1-((5-(dimethylamino)-[1,1′-biphenyl]-2-yl)sulfonyl)-4-fluoro-N-(4-(methylsulfonyl)but-3-en-2-yl)piperidine-4-carboxamide] | 86 | 79
COc1ccc(S(=O)(=O)N2CCC(F)(C(=O)N[C@H](C)/C=C\S(C)(=O)=O)CC2)c(-c2ccccc2)c1 [Compound 21, (R,Z)-4-fluoro-1-((5-methoxy-[1,1′-biphenyl]-2-yl)sulfonyl)-N-(4-(methylsulfonyl)but-3-en-2-yl)piperidine-4-carboxamide] | 1230 | 1000
C[C@@H](/C=C\S(C)(=O)=O)NC(=O)C1(F)CCN(S(=O)(=O)c2ccc(Cl)cc2-c2ccccc2Cl)CC1 [Compound 6, (S,Z)-1-((2′,5-dichloro-[1,1′-biphenyl]-2-yl)sulfonyl)-4-fluoro-N-(4-(methylsulfonyl)but-3-en-2-yl)piperidine-4-carboxamide] | 26 | 50
CC(C)c1ccc(S(=O)(=O)N2CCC(F)(C(=O)N[C@H](C)/C=C\S(C)(=O)=O)CC2)c(-c2ccccc2Cl)c1 [Compound 114, (R,Z)-1-((2′-chloro-5-isopropyl-[1,1′-biphenyl]-2-yl)sulfonyl)-4-fluoro-N-(4-(methylsulfonyl)but-3-en-2-yl)piperidine-4-carboxamide] | 680 | 610
CO/N=C/c1cccc(-c2cc(Cl)ccc2S(=O)(=O)N2CCC(F)(C(=O)N[C@@H](C)/C=C\S(C)(=O)=O)CC2)c1 [Compound 127, 1-((5-chloro-3′-((E)-(methoxyimino)methyl)-[1,1′-biphenyl]-2-yl)sulfonyl)-4-fluoro-N-((S,Z)-4-(methylsulfonyl)but-3-en-2-yl) piperidine-4-carboxamide] | 960 | 1100
COc1cccc(-c2cc(Cl)ccc2S(=O)(=O)N2CCC(F)(C(=O)N[C@@H](C)/C=C\S(C)(=O)=O)CC2)c1 [Compound 1, (S,Z)-1-((5-chloro-3′-methoxy-[1,1′-biphenyl]-2-yl)sulfonyl)-4-fluoro-N-(4-(methylsulfonyl)but-3-en-2-yl)piperidine-4-carboxamide] | 246 | 110
COc1cccc(-c2cc(Cl)ccc2S(=O)(=O)N2CCC(C)(C(=O)N[C@H](C)/C=C\S(C)(=O)=O)CC2)c1 [Compound 203, (R,Z)-1-((5-chloro-3′-methoxy-[1,1′-biphenyl]-2-yl)sulfonyl)-4-methyl-N-(4-(methylsulfonyl)but-3-en-2-yl)piperidine-4-carboxamide] | 1110 | 980
COc1ccc(S(=O)(=O)N2CCC(F)(C(=O)N[C@@H](C)/C=C\S(C)(=O)=O)CC2)c(-c2ccccc2OC)c1 [Compound 219, (S,Z)-1-((2′,5-dimethoxy-[1,1′-biphenyl]-2-yl)sulfonyl)-4-fluoro-N-(4-(methylsulfonyl)but-3-en-2-yl)piperidine-4-carboxamide] | 1090 | 970
COc1cccc(-c2cc(Cl)ccc2S(=O)(=O)N2CCC(C)(C(=O)N[C@@H](C)/C=C\S(C)(=O)=O)CC2)c1 [Compound 201, (S,Z)-1-((5-chloro-3′-methoxy-[1,1′-biphenyl]-2-yl)sulfonyl)-4-methyl-N-(4-(methylsulfonyl)but-3-en-2-yl)piperidine-4-carboxamide] | 310 | 350
COc1ccc(S(=O)(=O)N2CCC(F)(C(=O)N[C@H](C)/C=C\S(C)(=O)=O)CC2)c(-c2cccc(Cl)c2)c1 [Compound 22, (R,Z)-1-((3′-chloro-5-methoxy-[1,1′-biphenyl]-2-yl)sulfonyl)-4-fluoro-N-(4-(methylsulfonyl)but-3-en-2-yl)piperidine-4-carboxamide] | 785 | 770
Cc1ccccc1-c1cc(OC2CC2)ccc1S(=O)(=O)N1CCC(F)(C(=O)N[C@H](C)/C=C\S(C)(=O)=O)CC1 [Compound 106, (R,Z)-1-((5-cyclopropoxy-2′-methyl-[1,1′-biphenyl]-2-yl)sulfonyl)-4-fluoro-N-(4-(methylsulfonyl)but-3-en-2-yl)piperidine-4-carboxamide] | 310 | 820
C[C@H](/C=C\S(C)(=O)=O)NC(=O)C1(F)CCN(S(=O)(=O)c2ccc(C3COC3)cc2-c2ccccc2Cl)CC1 [Compound 132, (R,Z)-1-((2′-chloro-5-(oxetan-3-yl)-[1,1′-biphenyl]-2-yl)sulfonyl)-4-fluoro-N-(4-(methylsulfonyl)but-3-en-2-yl)piperidine-4-carboxamide] | 468 | 524
COCc1cccc(-c2cc(Cl)ccc2S(=O)(=O)N2CCC(F)(C(=O)N[C@@H](C)/C=C\S(C)(=O)=O)CC2)c1 [Compound 126, (S,Z)-1-((5-chloro-3′-(methoxymethyl)-[1,1′-biphenyl]-2-yl)sulfonyl)-4-fluoro-N-(4-(methylsulfonyl)but-3-en-2-yl)piperidine-4-carboxamide] | 816 | 430
C[C@H](/C=C\S(C)(=O)=O)NC(=O)C1(F)CCN(S(=O)(=O)c2ccc(F)cc2-c2ccccc2Cl)CC1 [Compound 31, (R,Z)-1-((2′-chloro-5-fluoro-[1,1′-biphenyl]-2-yl)sulfonyl)-4-fluoro-N-(4-(methylsulfonyl)but-3-en-2-yl)piperidine-4-carboxamide] | 620 | 760
C=C(C)c1ccc(S(=O)(=O)N2CCC(F)(C(=O)N[C@H](C)/C=C\S(C)(=O)=O)CC2)c(-c2ccccc2C)c1 [Compound 110, (R,Z)-4-fluoro-1-((2′-methyl-5-(prop-1-en-2-yl)-[1,1′-biphenyl]-2-yl)sulfonyl)-N-(4-(methylsulfonyl)but-3-en-2-yl)piperidine-4-carboxamide] | 363 | 830
C[C@@H](/C=C\S(C)(=O)=O)NC(=O)C1(F)CCN(S(=O)(=O)c2ccc(Cl)cc2-c2cccc(Cl)c2)CC1 [Compound 3, (S,Z)-1-((3′,5-dichloro-[1,1′-biphenyl]-2-yl)sulfonyl)-4-fluoro-N-(4-(methylsulfonyl)but-3-en-2-yl)piperidine-4-carboxamide] | 110 | 90
COc1cc(-c2ccccc2C)c(S(=O)(=O)N2CCC(F)(C(=O)N[C@H](C)/C=C\S(C)(=O)=O)CC2)cn1 [Compound 193, (R,Z)-4-fluoro-1-((6-methoxy-4-(o-tolyl)pyridin-3-yl)sulfonyl)-N-(4-(methylsulfonyl)but-3-en-2-yl)piperidine-4-carboxamide] | 284 | 290
Cc1ccccc1-c1cc(N2CCOCC2)ccc1S(=O)(=O)N1CCC(F)(C(=O)N[C@H](C)/C=C\S(C)(=O)=O)CC1 [Compound 122, (R,Z)-4-fluoro-1-((2′-methyl-5-morpholino-[1,1′-biphenyl]-2-yl)sulfonyl)-N-(4-(methylsulfonyl)but-3-en-2-yl)piperidine-4-carboxamide] | 490 | 610
C[C@H](/C=C\S(C)(=O)=O)NC(=O)C1(F)CCN(S(=O)(=O)c2ccc(Cl)cc2-c2ccccc2)CC1 [Compound 20, (R,Z)-1-((5-chloro-[1,1′-biphenyl]-2-yl)sulfonyl)-4-fluoro-N-(4-(methylsulfonyl)but-3-en-2-yl)piperidine-4-carboxamide] | 462 | 680
